The structures appear in SMILES notation.

This data set can be described thus: Preliminary tests: lutein added to an aqueous solution under stirring. It is filed as physicochemical. Conditions: even under strong and prolonged stirring. From the text:
As noted, lutein, being a lipophilic molecule, is insoluble in water.

For `CC1=C[C@H](O)CC(C)(C)C1/C=C/C(C)=C/C=C/C(C)=C/C=C/C=C(C)/C=C/C=C(C)/C=C/C1=C(C)C[C@@H](O)CC1(C)C` (stereo partly drawn) [lutein, β, ε-caroten-3,3′-diol], the “behaviour of lutein in aqueous solution (solubility)” value was “for the most part deposits rapidly on the bottom”.

Values taken from patent US12622881B2, “Water-soluble topical ophthalmic preparation containing lutein and production method thereof” (Omisan Farmaceutici S.R.L., priority 2021, dated 2026).
